In patent publication US20260240975A1, “VALIDATED HPV16-DERIVED S[…]” (Deutsches Krebsforschungszentrum Stiftung des öffentlichen …, priority 2023, published 2026):
Read-outs that look alike come from different tables or passages of the source. No end group written: not given here.

What was measured:
[1] = test system: short-term antigen-specific T cell lines generated from PBMCs; parameters: key: +: ELISPOT: Immungenicity of the peptide shown by IFN-gamma ELISPOT analysis; * Highlights data from published resources; +*: * Highlights data from published resources; conditions: marked * (published resources), cited from earlier work
[2] = test system: short-term antigen-specific T cell lines generated from PBMCs; assay: Interferon-γ ELISpot assay on short-term T cell lines; type: cell-based, human; parameters: key: +: ELISPOT: Immungenicity of the peptide shown by IFN-gamma ELISPOT analysis; * Highlights data from published resources; +*: * Highlights data from published resources
[3] = test system: peptide-specific T cell cultures; assay: T cell phenotyping and intracellular cytokine staining (flow cytometry); type: cell-based, human; parameters: key: +: cytokine: Immunogenicity of the peptide shown by intracellular cytokine staining (IFN-gamma, TNF-alpha); conditions: IFN-gamma, TNF-alpha
HPV16-positive cells = assay: Cytotoxicity assay (VITAL FR / live-cell imaging) with peptide-specific CD8+ T cells; type: cell-based, human; parameters: key: +: cytotox: Ability of peptide-specific T cells to kill HPV16-positive cells
Procedure: The flow cytometry based VITAL FR cytotoxicity assay was used as published by Stanke et al. (Stanke et al., 2010) to assess whether peptide-specific T cells are able to specifically kill HPV-transformed target cells. Briefly, two HLA-A2^+ cell lines, a HPV16-negative (HPV16^−) control cell line (C33A) and a HPV16-positive (HPV16^+) target cell line (CaSki) were fluorescently labeled with either FarRed or CFSE and were co-incubated with peptide-specific CD8^+ T cells as effector cells. After 48 h co-incubation, the fluorescently labeled cells were analyzed by flow cytometry to determine the surviving cells and calculate the specific cytolytic function of the effector cells by the ratio of target and control cells.
CaSki and C33A cells were fluorescently labeled with CFSE and FarRed, respectively. Cells of both cell lines were harvested and resuspended in plain RPMI medium at a concentration of 1×10^6 cells/mL. For cell labeling, 5 μM CSFE were added to CaSki cells and 0.25 μM FarRed were added to C33A cells. The cells were incubated at 37° C. and the reaction was stopped after 10 min by addition of 50 mL RPMI with 10% FBS. The cells were centrifuged at 300 xg for 5 min, the supernatant was discarded and the cells were resuspended in their cell culture medium. The labeled cells were seeded in T25 cell culture flasks with 1-2×10^6 cells/flask.
On the next day, the labeled CaSki and C33A as well as the epitope-specific semi-long-term T cell lines (described in 1.6) were harvested. CD8^+ T cells were isolated from the epitope-specific semi-long-term T cell lines using the MACS CD8^+ T cell isolation kit (Miltenyi Biotec) according to the manufacturer's protocol for LS columns. The CD8^+ T cells were resuspended in T cell medium and added to wells of a F-bottom 96-well plate in serial dilutions to achieve triplicates of 6×10^4, 3×10^4, 1.5×10^4, 0.75×10^4 and 0.375×10^4 cells per well. The CaSki and C33A cells were mixed 1:1 in T cell medium and 3×10^3 cells were added to each well containing T cells. Thereby effector:target (E:T) ratios of […] were achieved. Additionally, triplicates of mixed target cells without T cells were seeded, which is referred to as E:T 0. After 48 h incubation at 37° C., 5% CO2, the cells were harvested and analyzed at a BD FACS Canto™ II analyzer using the BD FACS Diva Software Version 6. The obtained data were analyzed with the FlowJo software Version 10 by applying the same gating strategy to all samples. Subsequently, the equations (1) and (2) given below were applied in Excel (Microsoft Office 2016) to calculate specific killing.
Semi long-term T cell lines were set up to obtain high numbers of T cells, which are required for the analysis of epitope specific cytotoxic T cell responses in VITAL FR cytotoxicity assays. Autologous DCs were generated from PBMCs as described in 1.7 and loaded with the desired HPV16 peptide. PBMCs of the same donor were thawed and resuspended in T cell medium supplemented with rhIL-7 (10 ng/mL) and rhIL-15 (20 ng/mL). 1×10^7 PBMCs/well were seeded to a 24-well plate in a total volume of 1 mL/well. Peptide-loaded DCs were added in a ratio of 50:1 (PBMCs:DCs) in 1 mL rhIL-7 (10 ng/mL) and rhIL-15 (20 ng/mL) supplemented T cell medium to achieve a final volume of 2 mL. The cell cultures were fed with rhIL-2 (final concentration: 40 U/mL) every other day. If the medium turned yellow the feeding was combined with a half medium change with 1 mL fresh IL-2 supplemented T cell medium. After eight days, the peptide stimulation with peptide-loaded DCs was repeated and cultivation was continued. On day 15, the T cell lines were harvested and used for CD8^+ T cell isolation and cytotoxicity assays.
In addition to the VITAL FR assay described herein above, a newly established live-cell imaging-based cytotoxicity assay was applied. […]

Substance: 1 (ISEYRHYCY; Human papillomavirus 16) [compound 1]
- ELISpot ([1]; HLA restriction A01): +*

Substance: 2 (HGDTPTLHEY; Human papillomavirus 16) [compound 2]
- ELISpot ([1]; HLA restriction A01): +*

Substance: 34 (CVYCKQQLLR; Human papillomavirus 16) [compound 34]
- ELISpot ([2]; HLA restriction A03): +
- ELISpot ([1]; HLA restriction A11): *

Substance: 43 (AVCDKCLKFY; Human papillomavirus 16) [compound 43]
- ELISpot ([2]; HLA restriction A03): +
- ELISpot ([2]; HLA restriction B15): +
- cytokine ([3]; HLA restriction A03): +
- cytokine ([3]; HLA restriction A11): +
- cytokine ([3]; HLA restriction B15): +
- ELISpot ([1]; HLA restriction A11): +*

Substance: 61 (RAHYNIVTF; Human papillomavirus 16) [compound 61]
- ELISpot ([2]; HLA restriction B15): +
- ELISpot ([1]; HLA restriction B07): +*

Substance: 62 (TFCCKCDSTL; Human papillomavirus 16) [compound 62]
- ELISpot ([2]; HLA restriction A24): +
- cytotox (HPV16-positive cells; HLA restriction A24): +

Substance: 77 (TPTLHEYML; Human papillomavirus 16) [compound 77]
- ELISpot ([1]; HLA restriction B07): *

Substance: 87 (LQPETTDLY; Human papillomavirus 16) [compound 87]
- cytokine ([3]; HLA restriction B15): +
- ELISpot ([1]; HLA restriction B15): +*

Substance: IRTLEDLLMGT [compound 33]
- cytotox (HPV16-positive cells; HLA restriction A02): +

Substance: LLMGTLGIVCP [compound 25]
- cytotox (HPV16-positive cells; HLA restriction A02): +

Substance: LMGTLGIVCPI [compound 12]
- cytotox (HPV16-positive cells; HLA restriction A02): +

Substance: MGTLGIVCPI [compound 14]
- cytotox (HPV16-positive cells; HLA restriction A02): +

Substance: RLCVQSTHV [compound 11]
- cytotox (HPV16-positive cells; HLA restriction A02): +

Substance: TTIHDIILECV [compound 30]
- cytotox (HPV16-positive cells; HLA restriction A02): +

Substance: YMLDLQPE [compound 13]
- cytotox (HPV16-positive cells; HLA restriction A02): +
